Reference: patent US11617751B2, “Pharmaceutical composition containing a tetrahydrofolic acid” (Bayer Pharma AG, priority 2006, dated 2023)

Conditions: in presence of polyvinylpyrrolidone (PVP); data not shown

Q: For `CN1c2c(nc(N)[nH]c2=O)NC[C@@H]1CNc1ccc(C(=O)N[C@@H](CCC(=O)O)C(=O)O)cc1` [5-methyl-(6S)-tetrahydrofolic acid], which “effect of PVP on break-down of 5-methyl-(6S)-tetrahydrofolic acid” value is on record?
A: accelerated the break-down
